Test results: the NIST ThermoML archive (doi:10.1021/acs.jced.8b01039)

Legend:
[1] = xn = mol fraction of the nth substance listed; conditions: Vibrating wire viscometry
[2] = Vibrating wire viscometry

F/C=C/C(F)(F)F [trans-1,3,3,3-tetrafluoropropene] + FC(F)C(F)(F)F
[1], x2 = 0.4933
Conditions	viscosity [mPa·s]
252.3 K, 2010 kPa, Liquid	0.3181
252.3 K, 3020 kPa, Liquid	0.3224
273.2 K, 1290 kPa, Liquid	0.2388
273.2 K, 1990 kPa, Liquid	0.2407
273.2 K, 3010 kPa, Liquid	0.2451
294.2 K, 1240 kPa, Liquid	0.1821
294.2 K, 2000 kPa, Liquid	0.1861
294.2 K, 3010 kPa, Liquid	0.1906
323.2 K, 960 kPa, Gas	0.0133
343.2 K, 1060 kPa, Gas	0.0143
343.2 K, 1770 kPa, Gas	0.0149
363.2 K, 1960 kPa, Gas	0.016
363.2 K, 2770 kPa, Gas	0.0173
383.2 K, 3110 kPa, Gas	0.0182

FC(F)C(F)(F)F [pentafluoroethane] + CC(F)F
[1], x1 = 0.5
Conditions	viscosity [mPa·s]
252.1 K, 1020 kPa, Liquid	0.2923
252.1 K, 2000 kPa, Liquid	0.2944
252.1 K, 2500 kPa, Liquid	0.2966
252.1 K, 3000 kPa, Liquid	0.299
252.1 K, 4000 kPa, Liquid	0.3024
263.1 K, 1510 kPa, Liquid	0.2558
263.1 K, 2010 kPa, Liquid	0.2574
263.1 K, 2510 kPa, Liquid	0.2593
263.1 K, 3020 kPa, Liquid	0.2612
263.1 K, 4010 kPa, Liquid	0.2643
274.5 K, 1510 kPa, Liquid	0.2181
274.5 K, 2000 kPa, Liquid	0.2198
274.5 K, 2510 kPa, Liquid	0.222
274.5 K, 3020 kPa, Liquid	0.2233
274.5 K, 4010 kPa, Liquid	0.2261
294.3 K, 1200 kPa, Liquid	0.1676
294.3 K, 1500 kPa, Liquid	0.1688
294.3 K, 2000 kPa, Liquid	0.1704
294.3 K, 3000 kPa, Liquid	0.1737
294.3 K, 4000 kPa, Liquid	0.1777
323.2 K, 990 kPa, Gas	0.0124
343.2 K, 1090 kPa, Gas	0.0132
343.2 K, 1800 kPa, Gas	0.014
363.2 K, 2010 kPa, Gas	0.0147
363.2 K, 2780 kPa, Gas	0.0157
383.2 K, 3130 kPa, Gas	0.0165

F/C=C/C(F)(F)F [trans-1,3,3,3-tetrafluoropropene] + C=C(F)C(F)(F)F
[1], x1 = 0.5
Conditions	viscosity [mPa·s]
252.3 K, 1000 kPa, Liquid	0.2935
252.3 K, 2010 kPa, Liquid	0.2969
252.3 K, 3020 kPa, Liquid	0.3004
273.2 K, 1000 kPa, Liquid	0.2271
273.2 K, 1960 kPa, Liquid	0.2316
273.2 K, 2980 kPa, Liquid	0.2352
294.2 K, 1010 kPa, Liquid	0.179
294.2 K, 1980 kPa, Liquid	0.1824
294.2 K, 3000 kPa, Liquid	0.1858
348.2 K, 950 kPa, Gas	0.0132
368.2 K, 1050 kPa, Gas	0.0139
368.2 K, 1710 kPa, Gas	0.0148
388.2 K, 1910 kPa, Gas	0.0156
388.2 K, 2700 kPa, Gas	0.0168
403.2 K, 3020 kPa, Gas	0.0175

CC(F)(F)F [1,1,1-trifluoroethane] + C=C(F)C(F)(F)F
[1], x1 = 0.5
Conditions	viscosity [mPa·s]
252.1 K, 2010 kPa, Liquid	0.2421
252.1 K, 2520 kPa, Liquid	0.2439
252.1 K, 3030 kPa, Liquid	0.2451
273.2 K, 910 kPa, Liquid	0.1824
273.2 K, 2010 kPa, Liquid	0.1859
273.2 K, 2500 kPa, Liquid	0.187
273.2 K, 3000 kPa, Liquid	0.1888
294.4 K, 1250 kPa, Liquid	0.1424
294.4 K, 2010 kPa, Liquid	0.1453
294.4 K, 2510 kPa, Liquid	0.1469
294.4 K, 3020 kPa, Liquid	0.1482
323.2 K, 970 kPa, Gas	0.0124
343.2 K, 1060 kPa, Gas	0.0133
343.2 K, 1840 kPa, Gas	0.014
363.2 K, 2040 kPa, Gas	0.0149
363.2 K, 2750 kPa, Gas	0.016
383.2 K, 3070 kPa, Gas	0.0168

FC(F)C(F)(F)F [pentafluoroethane]
[2]
Conditions	viscosity [mPa·s]
273.2 K, 1440 kPa, Liquid	0.2154
273.2 K, 3260 kPa, Liquid	0.22
273.2 K, 4880 kPa, Liquid	0.224
273.2 K, 6650 kPa, Liquid	0.2283
273.2 K, 8370 kPa, Liquid	0.2323
273.2 K, 10120 kPa, Liquid	0.2364
273.2 K, 11770 kPa, Liquid	0.2403
273.2 K, 13330 kPa, Liquid	0.2438
293.3 K, 1680 kPa, Liquid	0.1739
293.3 K, 4160 kPa, Liquid	0.1801
293.3 K, 6420 kPa, Liquid	0.1854
293.3 K, 8490 kPa, Liquid	0.1902
293.3 K, 10920 kPa, Liquid	0.1952
293.3 K, 13210 kPa, Liquid	0.2004
293.3 K, 15530 kPa, Liquid	0.2052
293.3 K, 17700 kPa, Liquid	0.2097
313.2 K, 1960 kPa, Liquid	0.14
313.2 K, 3810 kPa, Liquid	0.1447
313.2 K, 5550 kPa, Liquid	0.1487
313.2 K, 7210 kPa, Liquid	0.1525
313.2 K, 9450 kPa, Liquid	0.1576
313.2 K, 11270 kPa, Liquid	0.1616
313.2 K, 13140 kPa, Liquid	0.1653
333.2 K, 630 kPa, Gas	0.0116
333.2 K, 810 kPa, Gas	0.0116
333.2 K, 1010 kPa, Gas	0.0117
333.2 K, 1300 kPa, Gas	0.0117

F/C=C/C(F)(F)F [trans-1,3,3,3-tetrafluoropropene] + CC(F)(F)F
[1], x2 = 0.5
Conditions	viscosity [mPa·s]
252.3 K, 1030 kPa, Liquid	0.2653
252.3 K, 2020 kPa, Liquid	0.2688
252.3 K, 3090 kPa, Liquid	0.2721
273.2 K, 1070 kPa, Liquid	0.2044
273.2 K, 2060 kPa, Liquid	0.208
273.2 K, 3130 kPa, Liquid	0.2113
293.2 K, 1130 kPa, Liquid	0.1573
293.2 K, 2080 kPa, Liquid	0.1612
293.2 K, 3090 kPa, Liquid	0.1652
323.2 K, 970 kPa, Gas	0.0123
346.2 K, 1080 kPa, Gas	0.0131
346.2 K, 1910 kPa, Gas	0.0137
363.2 K, 2120 kPa, Gas	0.0146
363.2 K, 2720 kPa, Gas	0.0155
383.2 K, 3040 kPa, Gas	0.0162
